Biological target: T1, PI3K alpha (Homo sapiens, UniProt P42336)
T1 construct: purchased Millipore Upstate
Assay: P110 Alpha TR-FRET Assay (PI3K alpha kinase assay, HTRF Transcreener ADP Assay)
Assay type: biochemical
Conditions: PI3K (WT)
Experimental: PI3K alpha kinase assay may be done using HTRF Transcreener ADP Assay (Cisbio).
Composition of the reaction buffer was as follows 50 mM HEPES, pH 7.5, 5 mM MgCl2, 1 mM DTT, 30 μM Na3VO4. PI3 Kinase was procured from Millipore Upstate. […] ATP was used at final concentration of 10 μM. Corning 384 well white plates were used for the assay.
2 μl of diluted enzyme (50 ng), 3 μl of diluted compound and 5 μl of buffer were added, mixed then incubated for 20 minutes with shaking at 400 rpm. 3 μl of substrate (10 μM of ATP and 5 μM PIP2) were added to initiate the reaction. The samples were incubated for 20 min. At the end of the reaction time 10 μl of the Detection mix (5 μl of ADP-D2 and 5 μl of Anti-ADP-Cryptate) was added and the contents were incubated for 1 h. The reaction plate was directly read in an Envision Multilabel Plate Reader.

T1 sequence (P42336 whole entry): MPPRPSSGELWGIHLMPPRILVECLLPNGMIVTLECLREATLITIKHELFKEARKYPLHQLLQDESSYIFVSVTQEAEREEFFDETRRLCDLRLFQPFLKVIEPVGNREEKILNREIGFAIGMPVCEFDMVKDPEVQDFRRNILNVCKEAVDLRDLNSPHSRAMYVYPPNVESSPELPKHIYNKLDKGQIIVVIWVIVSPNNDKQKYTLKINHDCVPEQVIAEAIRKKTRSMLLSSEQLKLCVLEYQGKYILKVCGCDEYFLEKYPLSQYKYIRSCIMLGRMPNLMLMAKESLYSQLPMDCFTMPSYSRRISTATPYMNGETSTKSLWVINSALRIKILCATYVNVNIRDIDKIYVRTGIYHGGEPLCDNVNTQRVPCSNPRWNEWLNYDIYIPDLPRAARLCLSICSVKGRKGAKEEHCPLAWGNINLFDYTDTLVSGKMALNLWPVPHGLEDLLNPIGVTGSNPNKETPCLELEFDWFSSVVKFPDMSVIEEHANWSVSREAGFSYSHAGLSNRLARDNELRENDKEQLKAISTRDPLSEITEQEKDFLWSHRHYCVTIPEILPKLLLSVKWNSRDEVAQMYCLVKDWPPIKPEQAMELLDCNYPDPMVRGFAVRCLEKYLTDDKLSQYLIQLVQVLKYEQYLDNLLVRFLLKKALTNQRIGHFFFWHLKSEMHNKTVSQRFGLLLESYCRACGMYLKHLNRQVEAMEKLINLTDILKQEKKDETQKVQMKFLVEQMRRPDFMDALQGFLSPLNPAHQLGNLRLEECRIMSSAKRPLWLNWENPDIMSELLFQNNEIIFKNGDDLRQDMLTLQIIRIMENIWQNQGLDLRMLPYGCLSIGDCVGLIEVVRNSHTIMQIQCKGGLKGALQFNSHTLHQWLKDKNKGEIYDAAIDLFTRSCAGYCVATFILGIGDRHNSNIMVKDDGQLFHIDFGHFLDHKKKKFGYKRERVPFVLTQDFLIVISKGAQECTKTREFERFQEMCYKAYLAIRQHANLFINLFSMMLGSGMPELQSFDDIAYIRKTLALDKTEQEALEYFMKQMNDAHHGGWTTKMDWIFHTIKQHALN
T1 sequence (P27986 whole entry partner): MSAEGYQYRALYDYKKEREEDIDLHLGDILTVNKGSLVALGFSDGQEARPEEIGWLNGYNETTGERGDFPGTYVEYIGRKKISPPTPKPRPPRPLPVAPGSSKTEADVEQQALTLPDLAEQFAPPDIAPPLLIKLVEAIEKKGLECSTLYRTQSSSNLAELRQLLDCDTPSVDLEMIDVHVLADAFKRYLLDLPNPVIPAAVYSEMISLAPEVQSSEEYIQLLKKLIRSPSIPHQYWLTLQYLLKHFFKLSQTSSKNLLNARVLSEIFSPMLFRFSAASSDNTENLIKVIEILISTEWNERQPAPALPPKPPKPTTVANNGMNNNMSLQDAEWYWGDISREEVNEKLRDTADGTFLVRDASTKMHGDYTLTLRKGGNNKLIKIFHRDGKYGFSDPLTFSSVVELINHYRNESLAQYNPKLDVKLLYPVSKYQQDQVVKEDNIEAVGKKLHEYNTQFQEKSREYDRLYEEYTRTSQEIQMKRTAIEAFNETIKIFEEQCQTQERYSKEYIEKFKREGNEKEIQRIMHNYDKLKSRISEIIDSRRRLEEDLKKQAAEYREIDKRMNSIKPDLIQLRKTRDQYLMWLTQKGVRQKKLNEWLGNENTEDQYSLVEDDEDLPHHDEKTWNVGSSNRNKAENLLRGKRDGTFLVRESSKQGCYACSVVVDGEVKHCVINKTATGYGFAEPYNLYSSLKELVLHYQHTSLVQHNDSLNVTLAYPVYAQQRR

Compound	IC50 [µM]
2-8-[4-1,6-5-bis(morpholin-4-yl)-1,3,5-triazin-2-yl]-2H-indazole [Compound 1112]	< 5
CN(C)C(=O)c1ccc(Oc2nc(-c3cnc(N)s3)nc(N3C4CCC3COC4)n2)cc1 [Compound 1001, 4-8-{[4-1-(2-11-amino-1,3-thiazol-5-yl)-6-5-{3-oxa-8-azabicyclo[3.2.1]octan-8-yl}-1,3,5-triazin-2-yl]oxy}-N,N-dimethylbenzamide]	< 5
CN(C)C(=O)c1ccc(Oc2nc(-c3cnc(N)s3)nc(N3CCCOCC3)n2)cc1 [Compound 1002, 4-9-{[4-1-(2-17-amino-1,3-thiazol-5-yl)-6-5-(1,4-oxazepan-4-yl)-1,3,5-triazin-2-yl]oxy}-N,N-dimethylbenzamide]	< 5
C[C@H]1COCCN1c1nc(Oc2ccc(C(=O)N(C)C)cc2)nc(-c2cnc(N)s2)n1 [Compound 1003, 4-9-{[4-1-(2-22-amino-1,3-thiazol-5-yl)-6-5-(3-25-methylmorpholin-4-yl)-1,3,5-triazin-2-yl]oxy}-N,N-dimethylbenzamide]	< 5
CN(C)C(=O)c1ccc(Oc2nc(-c3cnc(N)s3)nc(N3CCOCC3)n2)cc1 [Compound 1004, 4-14-{[4-1-(2-27-amino-1,3-thiazol-5-yl)-6-5-(morpholin-4-yl)-1,3,5-triazin-2-yl]oxy}-N,N-dimethylbenzamide]	< 5
CS(=O)(=O)N1CCC(COc2nc(-c3cnc(N)nc3)nc(N3CCOCC3)n2)CC1 [Compound 1005, 5-(4-((1-(methylsulfonyl)piperidin-4-yl)methoxy)-6-morpholino-1,3,5-triazin-2-yl)pyrimidin-2-amine]	< 5
CN(C)C(=O)Cc1ccc(Oc2nc(-c3cnc(N)nc3)nc(N3CCOCC3)n2)cc1 [Compound 1006, 2-26-(4-20-{[4-3-(2-15-aminopyrimidin-5-yl)-6-5-(morpholin-4-yl)-1,3,5-triazin-2-yl]oxy}phenyl)-N,N-dimethylacetamide]	< 5
Nc1ncc(-c2nc(Nc3nccs3)nc(N3CCOCC3)n2)s1 [Compound 1007, N-(4-(2-aminothiazol-5-yl)-6-morpholino-1,3,5-triazin-2-yl)thiazol-2-amine]	< 5
CN(C)C(=O)N1CCC(Oc2nc(-c3cnc(N)nc3)nc(N3CCOCC3)n2)CC1 [Compound 1008, 4-14-{[4-1-(2-17-aminopyrimidin-5-yl)-6-5-(morpholin-4-yl)-1,3,5-triazin-2-yl]oxy}-N,N-dimethylpiperidine-1-carboxamide]	< 5
CN(C)C(=O)c1ccc(Oc2nc(-c3cnc(N)cn3)nc(N3CCOCC3)n2)cc1 [Compound 1009, 4-14-{[4-1-(5-17-aminopyrazin-2-yl)-6-5-(morpholin-4-yl)-1,3,5-triazin-2-yl]oxy}-N,N-dimethylbenzamide]	< 5
Nc1ccc(-c2nc(Oc3ccc4c(c3)CCC(=O)N4)nc(N3CCOCC3)n2)cn1 [Compound 1010, 6-20-{[4-1-(6-11-ammopyridin-3-yl)-6-5-(morpholin-4-yl)-1,3,5-triazin-2-yl]oxy}-1,2,3,4-tetrahydroquinolin-2-one]	< 5
CN(C)C(=O)c1ccc(Oc2nc(-c3cnc(N)nc3)nc(N3CCOCC3)n2)cc1 [Compound 1011, 4-14-{[4-1-(2-27-aminopyrimidin-5-yl)-6-5-(morpholin-4-yl)-1,3,5-triazin-2-yl]oxy}-N,N-dimethylbenzamide]	< 5
CN(C)C(=O)c1ccc(Oc2nc(-c3ccc(N)nc3)nc(N3C4CCC3COC4)n2)cc1 [Compound 1012, 4-9-{[4-1-(6-12-aminopyridin-3-yl)-6-5-{3-oxa-8-azabicyclo[3.2.1]octan-8-yl}-1,3,5-triazin-2-yl]oxy}-N,N-dimethylbenzamide]	< 5
CN(C)C(=O)Cc1cccc(Oc2nc(-c3ccc(N)nc3)nc(N3CCOCC3)n2)c1 [Compound 1013, 2-26-(3-20-{[4-1-(6-11-aminopyridin-3-yl)-6-5-(morpholin-4-yl)-1,3,5-triazin-2-yl]oxy}phenyl)-N,N-dimethylacetamide]	< 5
CN(C)C(=O)c1ccc(Oc2nc(-c3ccc(N)nc3)nc(N3CCCOCC3)n2)cc1 [Compound 1014, 4-21-{[4-1-(6-9-aminopyridin-3-yl)-6-5-(1,4-oxazepan-4-yl)-1,3,5-triazin-2-yl]oxy}-N,N-dimethylbenzamide]	< 5
CN(C)C(=O)c1cccc(Oc2nc(-c3ccc(N)nc3)nc(N3CCOCC3)n2)c1 [Compound 1015, 3-20-{[4-1-(6-11-aminopyridin-3-yl)-6-5-(morpholin-4-yl)-1,3,5-triazin-2-yl]oxy}-N,N-dimethylbenzamide]	< 5
CN(C)C(=O)c1ccc(Oc2nc(-c3cccc4[nH]ncc34)nc(-n3ccnc3)n2)cc1 [Compound 1016, 4-9-{[4-5-(1H-imidazol-1-yl)-6-1-(1H-indazol-4-yl)-1,3,5-triazin-2-yl]oxy}-N,N-dimethylbenzamide]	< 5

Compound	IC50 [µM]
CN(C)C(=O)Cc1ccc(Oc2nc(-c3ccc(N)nc3)nc(N3CCOCC3)n2)cc1 [Compound 1017, 2-20-(4-9-{[4-1-(6-12-aminopyridin-3-yl)-6-5-(morpholin-4-yl)-1,3,5-triazin-2-yl]oxy}phenyl)-N,N-dimethylacetamide]	< 5
Cc1cc(-c2nc(Oc3ccc(C(=O)N(C)C)cc3)nc(N3CCOCC3)n2)cnc1N [Compound 1018, 4-14-{[4-1-(6-27-amino-5-26-methylpyridin-3-yl)-6-5-(morpholin-4-yl)-1,3,5-triazin-2-yl]oxy}-N,N-dimethylbenzamide]	< 5
CN(C)C(=O)c1ccc(Oc2nc(-c3ccc(NN)nc3)nc(N3CCOCC3)n2)cc1 [Compound 1019, 4-14-{[4-1-(6-26-hydrazinylpyridin-3-yl)-6-5-(morpholin-4-yl)-1,3,5-triazin-2-yl]oxy}-N,N-dimethylbenzamide]	< 5
Cc1nc(N)ccc1-c1nc(Oc2ccc(C(=O)N(C)C)cc2)nc(N2CCOCC2)n1 [Compound 1020, 4-14-{[4-1-(6-17-amino-2-19-methylpyridin-3-yl)-6-5-(morpholin-4-yl)-1,3,5-triazin-2-yl]oxy}-N,N-dimethylbenzamide]	< 5
Cc1cc(Oc2nc(-c3ccc(N)nc3)nc(N3CCOCC3)n2)ccc1C(=O)N(C)C [Compound 1021, 4-20-{[4-1-(6-16-aminopyridin-3-yl)-6-5-(morpholin-4-yl)-1,3,5-triazin-2-yl]oxy}-N,N,2-trimethylbenzamide]	< 5
Cc1cc(N)ncc1-c1nc(Oc2ccc(C(=O)N(C)C)cc2)nc(N2CCOCC2)n1 [Compound 1022, 4-14-{[4-1-(6-17-amino-4-15-methylpyridin-3-yl)-6-5-(morpholin-4-yl)-1,3,5-triazin-2-yl]ioxy}-N,N-dimethylbenzamide]	> 5
CS(=O)(=O)N1CCC(COc2nc(-c3ccc(N)nc3)nc(N3CCOCC3)n2)CC1 [Compound 1023, 5-(4-((1-(methylsulfonyl)piperidin-4-yl)methoxy)-6-morpholino-1,3,5-triazin-2-yl)pyridin-2-amine]	< 5
CN(C)C(=O)c1ccc(Oc2nc(-c3ccncc3)nc(-c3cccc4[nH]ncc34)n2)cc1 [Compound 1024, 4-9-{[4-1-(1H-indazol-4-yl)-6-5-(pyridin-4-yl)-1,3,5-triazin-2-yl]oxy}-N,N-dimethylbenzamide]	> 5
CN(C)C(=O)N1CC[C@H](COc2nc(-c3ccc(N)nc3)nc(N3CCOCC3)n2)C1 [Compound 1025, 3-21-({[4-3-(6-16-aminopyridin-3-yl)-6-5-(morpholin-4-yl)-1,3,5-triazin-2-yl]oxy}methyl)-N,N-dimethylpyrrolidine-1-carboxamide]	< 5
CN(C)C(=O)N1CC[C@H](Oc2nc(-c3ccc(N)nc3)nc(N3CCOCC3)n2)C1 [Compound 1026, 3-19-{[4-3-(6-16-aminopyridin-3-yl)-6-5-(morpholin-4-yl)-1,3,5-triazin-2-yl]oxy}-N,N-dimethylpyrrolidine-1-carboxamide]	< 5
CN(C)C(=O)c1ccc(Oc2nc(-c3ccc(N)nc3)nc(N3CCOCC3)n2)cc1 [Compound 1027, 4-14-{[4-1-(6-17-aminopyridin-3-yl)-6-5-(morpholin-4-yl)-1,3,5-triazin-2-yl]oxy}-N,N-dimethylbenzamide]	< 5
CN(C)C(=O)N1CCC(Oc2nc(-c3ccc(N)nc3)nc(N3CCOCC3)n2)CC1 [Compound 1028, 4-20-{[4-1-(6-11-aminopyridin-3-yl)-6-5-(morpholin-4-yl)-1,3,5-triazin-2-yl]oxy}-N,N-dimethylpiperidine-1-carboxamide]	< 5
CN(C)C(=O)c1ccc(Oc2nc(-c3ccc(F)nc3)nc(N3CCOCC3)n2)cc1 [Compound 1029, 4-14-{[4-1-(6-17-fluoropyridin-3-yl)-6-5-(morpholin-4-yl)-1,3,5-triazin-2-yl]oxy}-N,N-dimethylbenzamide]	< 5
CN(C)C(=O)c1ccc(Oc2nc(-c3cccc(O)c3)nc(N3CCOCC3)n2)cc1 [Compound 1030, 4-14-{[4-1-(3-21-hydroxyphenyl)-6-5-(morpholin-4-yl)-1,3,5-triazin-2-yl]oxy}-N,N-dimethylbenzamide]	< 5
CN(C)C(=O)c1ccc(Oc2nc(-c3ccc(N)cc3)nc(N3CCOCC3)n2)cc1 [Compound 1031, 4-14-{[4-1-(4-17-aminophenyl)-6-5-(morpholin-4-yl)-1,3,5-triazin-2-yl]oxy}-N,N-dimethylbenzamide]	< 5
CN(C)C(=O)c1ccc(Oc2nc(-c3cncc(N)c3)nc(N3CCOCC3)n2)cc1 [Compound 1032, 4-14-{[4-1-(5-26-aminopyridin-3-yl)-6-5-(morpholin-4-yl)-1,3,5-triazin-2-yl]oxy}-N,N-dimethylbenzamide]	< 5

Source: patent US9481670B2, “Triazine compounds” (Sphaera Pharma PTE. Ltd., priority 2011, dated 2016)
